Tested on: LNCaP cell lines
Test: WST-1 Cell Proliferation and Viability Assay
Type: cell-based
Settings: Homo sapiens, LNCaP cells
Description: WST-1 Cell Proliferation and Viability Assay
Cell proliferation and cell viability was assessed using the tetrazolium salt WST-1 (Roche Applied Science, Indianapolis Ind.). The assay is based on the cleavage of WST-1 (light red) by mitochondrial dehydrogenase causing the formation of formazan (dark red), which can be measured on an optical density (O.D.) reader. LNCaP cell lines were plated in 96 well tissue culture plates (Corning Costar, N.Y.) at a density of 5000 cells/well in 150 μl complete media phenol-red free (RPMI-1640 [Invitrogen, Carlsbad Calif.] and 10% fetal calf serum). This plate is termed the assay plate. After the cells are plated, they are then incubated overnight at 37 degrees Celsius in a humidified chamber containing 5% CO2 (incubator).
Compounds are added to the assay plate in 50 μl of complete media and 0.4% DMSO (v:v) making the final DMSO concentration 0.1%. The assay plate is then returned to the incubator for 18-72 hours. WST-1 reagent is then added (20 μl/well) and the plate is placed on an ELISA plate shaker for 30 minutes at room temperature. Plates are then transferred back to the incubator for an additional 3 hours. Plates are then read on a 96 well plate O.D. reader at A490-A650.

[1] = compound incubation 18-72 hours
[2] = flagged "Estimated": based on actual data at different concentrations

Structure (SMILES)	EC50 [1] [µM]	EC50 [2] [µM]
CC(Cc1ccccc1)Oc1cccc(NC(=O)c2cc(Cl)ccc2O)c1 (stereo not shown) [Compound 95]	6	–
CC(C)(C)c1cc(C(=O)NCc2cccc(-c3ccccc3)c2)c(O)c(C(C)(C)C)c1 [Compound 219]	32	–
O=C(Nc1cccc(OCCc2ccccc2)c1)c1ccccc1O [Compound 197]	26	–
COc1ccc(OCCc2ccccc2)c(NC(=O)c2cc(Cl)ccc2O)c1 [Compound 147]	6	–
O=C(Nc1cc(C(F)(F)F)ccc1N1CCN(c2ccccc2)CC1)c1cc(Cl)ccc1O [Compound 272]	0.9	–
COc1ccccc1CCOc1cccc(NC(=O)c2cc(-c3ccccc3Oc3ccccc3)ccc2O)c1 [Compound 344]	16	–
CS(=O)(=O)c1ccc(CCOc2ccc(C(F)(F)F)cc2NC(=O)c2cc(Cl)ccc2O)cc1 [Compound 287]	3.1	–
CN(CC(=O)OC(C)(C)C)c1ccc(NC(=O)c2cc(Cl)ccc2O)c(OCCc2cccc(C(F)(F)F)c2)c1 [Compound 373]	2.9	–
O=C(Nc1cc(C(F)(F)F)ccc1OCCc1ccccc1Cl)c1cc(Cl)ccc1O [Compound 247]	0.9	–
CC(C)c1ccc(CCOc2ccc(Cl)cc2NC(=O)c2cc(Cl)ccc2O)cc1 [Compound 100]	1	–
O=C(NCc1cccc(-c2ccccc2)c1)c1cc(Cl)ccc1O [Compound 238]	–	30
O=C(c1ccccc1)c1cccc(NC(=O)c2cc(Cl)ccc2O)c1 [Compound 21]	9	–
O=C(Nc1cc(C(F)(F)F)cc(Cl)c1OCCc1ccc(C(F)(F)F)cc1)c1cc(Cl)ccc1O [Compound 130]	2	–
COc1ccccc1CCOc1cccc(NC(=O)c2cccc(C)c2O)c1 [Compound 207]	33	–
Cc1ccc(NC(=O)c2cc(Cl)ccc2O)cc1OCCc1ccccc1 [Compound 45]	4	–
Cc1cccc(NC(=O)c2cc(Cl)ccc2O)c1 [Compound 113]	8	–
COc1ccccc1CCOc1cccc(NC(=O)c2cc(Cl)cc([N+](=O)[O-])c2O)c1 [Compound 336]	28	–

Structure (SMILES)	EC50 [1] [µM]	EC50 [2] [µM]
O=C(Nc1ccc(OCCc2ccccc2)cc1C(F)(F)F)c1cc(Cl)ccc1O [Compound 156]	16	–
O=C(Nc1ccc(NCCc2cccc(C(F)(F)F)c2)c(C(F)(F)F)c1)c1cc(Cl)ccc1O [Compound 363]	4	–
Cc1cc(Cl)c(OCCc2ccccc2C(F)(F)F)c(NC(=O)c2cc(Cl)ccc2O)c1C [Compound 240]	10	–
O=C(Nc1cc(Cl)ccc1OCCc1ccc(OC(F)(F)F)cc1)c1cc(Cl)ccc1O [Compound 161]	1	–
Cc1ccc(C(=O)NCc2cccc(-c3ccccc3)c2)c(O)c1 [Compound 205]	43	–
COc1ccccc1CCOc1cccc(NC(=O)c2cc(-c3cccc(C(C)C)c3)ccc2O)c1 [Compound 345]	9	–
COc1ccccc1CCOc1cccc(NC(=O)c2cc(-c3ccccc3)ccc2O)c1 [Compound 234]	10	–
COc1ccccc1CCOc1ccc(Cl)c(NC(=O)c2cc(Cl)ccc2O)c1 [Compound 32]	6	–
COc1ccc(OCCc2ccccc2C(F)(F)F)c(NC(=O)c2cc(Cl)ccc2O)c1 [Compound 170]	4	–
COc1ccccc1CCOc1cccc(NC(=O)c2cc(-c3ccc4c(c3)OCO4)ccc2O)c1 [Compound 348]	17	–
CCC(COc1cc(NC(=O)c2cc(Cl)ccc2O)ccc1C)c1ccccc1 (stereo not shown) [Compound 127]	2	–
O=C(Nc1cccc(CCOc2ccccc2)c1)c1cc(Cl)ccc1O [Compound 18]	10	–
O=C(NCCc1ccccc1Oc1ccccc1)c1cc(Cl)ccc1O [Compound 118]	–	30
O=C(Nc1cc(C(F)(F)F)ccc1OCCC1CC1)c1cc(Cl)ccc1O [Compound 265]	0.9	–
O=C(NCc1cc(F)cc(C(F)(F)F)c1)c1cc(Cl)ccc1O [Compound 320]	17.5	–
Cc1cc(C)c(CCOc2cccc(NC(=O)c3cc(Cl)ccc3O)c2)c(C)c1 [Compound 62]	4	–
Cc1cc(C)c(OCCc2ccccc2C(F)(F)F)c(NC(=O)c2cc(Cl)ccc2O)c1 [Compound 131]	2	–
